The values that follow come from patent US8119692B2 (priority 2007, dated 2012).

The target in this experiment is Lethal factor protease (Bacillus anthracis, UniProt P15917). In words: biochemical. Particulars: LF (FRET) Ki^app.
Lethal factor protease, sequence (P15917 34-809 limits assumed): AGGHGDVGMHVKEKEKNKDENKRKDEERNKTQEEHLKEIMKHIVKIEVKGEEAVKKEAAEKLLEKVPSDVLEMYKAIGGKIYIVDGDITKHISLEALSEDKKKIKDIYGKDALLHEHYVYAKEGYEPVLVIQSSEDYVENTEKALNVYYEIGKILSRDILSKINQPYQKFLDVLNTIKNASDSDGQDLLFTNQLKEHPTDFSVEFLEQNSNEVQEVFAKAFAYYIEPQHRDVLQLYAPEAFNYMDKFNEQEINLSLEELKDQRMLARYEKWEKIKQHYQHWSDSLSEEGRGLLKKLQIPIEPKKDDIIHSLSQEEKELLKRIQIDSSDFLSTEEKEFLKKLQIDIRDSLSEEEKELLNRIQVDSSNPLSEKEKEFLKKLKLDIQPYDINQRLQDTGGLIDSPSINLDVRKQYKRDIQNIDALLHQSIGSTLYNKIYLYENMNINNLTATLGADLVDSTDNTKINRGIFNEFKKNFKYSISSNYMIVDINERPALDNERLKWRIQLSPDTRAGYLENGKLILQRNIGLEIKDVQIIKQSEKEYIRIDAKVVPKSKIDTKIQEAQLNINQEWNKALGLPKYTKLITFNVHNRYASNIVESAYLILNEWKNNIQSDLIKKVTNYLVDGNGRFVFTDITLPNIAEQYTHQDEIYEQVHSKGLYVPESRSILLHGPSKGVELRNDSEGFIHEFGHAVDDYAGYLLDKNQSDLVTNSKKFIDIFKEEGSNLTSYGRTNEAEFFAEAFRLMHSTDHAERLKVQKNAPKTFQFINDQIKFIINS
As for `CCN(CC)CC[C@@H](C[C@@H](OC)c1ccc(F)cc1)C(=O)NO` [Compound 167995, (2S,4R)-2-(2-(diethylamino)ethyl)-4-(4-fluorophenyl)-N-hydroxy-4-methoxybutanamide], the Ki turned out to be 2200 nM.
With `CO[C@H](C[C@H](CCN(Cc1ccccc1)Cc1ccccc1)C(=O)NO)c1ccc(F)cc1` [Compound 167996, (2S,4R)-2-(2-(dibenzylamino)ethyl)-4-(4-fluorophenyl)-N-hydroxy-4-methoxybutanamide], the Ki was 33400 nM.
`CO[C@H](C[C@H](CCN(C)c1cccc(Br)c1)C(=O)NO)c1ccc(F)cc1` [Compound 168000, (2S,4R)-2-(2-((3-bromophenyl)(methyl)amino)ethyl)-4-(4-fluorophenyl)-N-hydroxy-4-methoxybutanamide] yielded a Ki of 2800 nM.
`CO[C@H](C[C@H](CCN(C)Cc1cccc(Br)c1)C(=O)NO)c1ccc(F)cc1` [Compound 168001, (2S,4R)-2-(2-((3-bromobenzyl)(methyl)amino)ethyl)-4-(4-fluorophenyl)-N-hydroxy-4-methoxybutanamide] registered a Ki of 1200 nM.
For `CO[C@H](C[C@H](CCN(C)Cc1cccc(-c2ccc(F)c(C)c2)c1)C(=O)NO)c1ccc(F)cc1` [Compound 168003, (2S,4R)-2-(2-(((4′-fluoro-3′-methylbiphenyl-3-yl)methyl)(methyl)amino)ethyl)-4-(4-fluorophenyl)-N-hydroxy-4-methoxybutanamide] the value was 2300 nM; for `CO[C@H](C[C@H](CCN(C)c1cccc(-c2ccc(F)c(C)c2)c1)C(=O)NO)c1ccc(F)cc1` [Compound 168007, (2S,4R)-2-(2-((4′-fluoro-3′-methylbiphenyl-3-yl)(methyl)amino)ethyl)-4-(4-fluorophenyl)-N-hydroxy-4-methoxybutanamide], 19500 nM.
As for `CO[C@H](C[C@H](CCN(C)c1ccc(Br)cc1)C(=O)NO)c1ccc(F)cc1` [Compound 168013, (2S,4R)-2-(2-((4-bromophenyl)(methyl)amino)ethyl)-4-(4-fluorophenyl)-N-hydroxy-4-methoxybutanamide], the Ki turned out to be 1800 nM.
For `CO[C@H](C[C@H](CCN(C)Cc1ccc(Br)cc1)C(=O)NO)c1ccc(F)cc1` [Compound 168015] the value was 2200 nM; for `CO[C@H](C[C@H](CCN(C)C/C=C/c1ccccc1)C(=O)NO)c1ccc(F)cc1` [Compound 168017, (2S,4R)-2-(2-(cinnamyl(methyl)amino)ethyl)-4-(4-fluorophenyl)-N-hydroxy-4-methoxybutanamide], 520 nM; for `CO[C@H](C[C@H](CCN(C)c1ccccc1)C(=O)NO)c1ccc(F)cc1` [Compound 168028, (2S,4R)-4-(4-fluorophenyl)-N-hydroxy-4-methoxy-2-(2-(methyl(phenyl)amino)ethyl)butanamide], 1820 nM.
As for `CO[C@H](C[C@H](CCN(C)Cc1ccc(-c2ccc(F)c(C)c2)cc1)C(=O)NO)c1ccc(F)cc1` [Compound 168037, (2S,4R)-2-(2-(((4′-fluoro-3′-methylbiphenyl-4-yl)methyl)(methyl)amino)ethyl)-4-(4-fluorophenyl)-N-hydroxy-4-methoxybutanamide], the Ki is 680 nM.
Turning to `CO[C@H](C[C@H](CCN(C)c1ccc(-c2ccc(F)c(C)c2)cc1)C(=O)NO)c1ccc(F)cc1` [Compound 168038, (2S,4R)-2-(2-((4′-fluoro-3′-methylbiphenyl-4-yl)(methyl)amino)ethyl)-4-(4-fluorophenyl)-N-hydroxy-4-methoxybutanamide], the Ki amounted to 910 nM.
The molecule `CO[C@H](C[C@H](CCN1CCC[C@H](CO)C1)C(=O)NO)c1ccc(F)cc1` [Compound 168039, (2S,4R)-4-(4-fluorophenyl)-N-hydroxy-2-(2-((S)-3-(hydroxymethyl)piperidin-1-yl)ethyl)-4-methoxybutanamide] registered a Ki of 580 nM.
`CO[C@H](C[C@H](CCN1CCC[C@H](CN2CCCCC2)C1)C(=O)NO)c1ccc(F)cc1` [Compound 168044, (2S,4R)-4-(4-fluorophenyl)-N-hydroxy-4-methoxy-2-(2-((R)-3-(piperidin-1-ylmethyl)piperidin-1-yl)ethyl)butanamide]: the Ki came out at 1920 nM.
The value for `CO[C@H](C[C@H](CCN1CCC[C@@H](CN2CCCCC2)C1)C(=O)NO)c1ccc(F)cc1` [Compound 168045, (2S,4R)-4-(4-fluorophenyl)-N-hydroxy-4-methoxy-2-(2-((S)-3-(piperidin-1-ylmethyl)piperidin-1-yl)ethyl)butanamide] was 430 nM; that for `CO[C@H](C[C@H](CCN(C)CCN(C)c1ccccc1)C(=O)NO)c1ccc(F)cc1` [Compound 168058, (2S,4R)-4-(4-fluorophenyl)-N-hydroxy-4-methoxy-2-(2-(methyl(2-(methyl(phenyl)amino)ethyl)amino)ethyl)butanamide] was 780 nM; that for `CO[C@H](C[C@H](CCN1CCC[C@@H](CO)C1)C(=O)NO)c1ccc(F)cc1` [Compound 168059, (2S,4R)-4-(4-fluorophenyl)-N-hydroxy-2-(2-((R)-3-(hydroxymethyl)piperidin-1-yl)ethyl)-4-methoxybutanamide] was 600 nM.
The molecule `CO[C@H](C[C@H](CCN(C)CCN(C)CCCc1ccccc1)C(=O)NO)c1ccc(F)cc1` [Compound 168082, (2S,4R)-4-(4-fluorophenyl)-N-hydroxy-4-methoxy-2-(2-(methyl(2-(methyl(3-phenylpropyl)amino)ethyl)amino)ethyl)butanamide] showed a Ki of 820 nM.
`CO[C@H](C[C@H](CCCCNCc1ccc(F)c(C)c1)C(=O)NO)c1ccc(F)cc1` [Compound 168136, (S)-6-(4-fluoro-3-methylbenzylamino)-2-((R)-2-(4-fluorophenyl)-2-methoxyethyl)-N-hydroxyhexanamide] registered a Ki of 190 nM.
`CO[C@H](C[C@H](CCCCN(C)Cc1ccc(F)cc1)C(=O)NO)c1ccc(F)cc1` [Compound 168138] registered a Ki of 390 nM.
In the case of `CO[C@H](C[C@H](CCCCNCCc1ccc(F)cc1)C(=O)NO)c1ccc(F)cc1` [Compound 168221], the Ki was determined as 280 nM.
Turning to `CO[C@H](C[C@H](CCCCNCCCc1ccc(F)cc1)C(=O)NO)c1ccc(F)cc1` [Compound 168222, (S)-2-((R)-2-(4-fluorophenyl)-2-methoxyethyl)-6-(3-(4-fluorophenyl)propylamino)-N-hydroxyhexanamide], the Ki is 170 nM.
For `CO[C@H](C[C@H](CCCCNCc1cccs1)C(=O)NO)c1ccc(F)cc1` [Compound 168223], the Ki came to 210 nM.
Turning to `CO[C@H](C[C@H](CCCCNCc1ccc(Oc2ccccc2)cc1)C(=O)NO)c1ccc(F)cc1` [Compound 168224, (S)-2-((R)-2-(4-fluorophenyl)-2-methoxyethyl)-N-hydroxy-6-(4-phenoxybenzylamino)hexanamide], the Ki was found to be 230 nM.
On to `CO[C@H](C[C@H](CCCCN1CCN(Cc2ccccc2)CC1)C(=O)NO)c1ccc(F)cc1` [Compound 168226, (S)-6-(4-benzylpiperazin-1-yl)-2-((R)-2-(4-fluorophenyl)-2-methoxyethyl)-N-hydroxyhexanamide], for which the Ki is 580 nM.
For `CO[C@H](C[C@H](CCCCNCC1CCCCC1)C(=O)NO)c1ccc(F)cc1` [Compound 168227, (S)-6-(cyclohexylmethylamino)-2-((R)-2-(4-fluorophenyl)-2-methoxyethyl)-N-hydroxyhexanamide] the value was 690 nM.
